Assay results taken from US10098895B2, “Treatment of symptoms related to neurodegenerative disorders through pharmacological dermal activation of cranial nerves” (GLIA, LLC, priority 2016, dated 2018).
“Also recorded” adds a separate entry of the source.

What was measured:
[1] = test system: Parkinson's disease symptoms; test: Example 1: Parkinson's disease patient, dermal application to forehead and ear conchae
Protocol: A person was diagnosed with the early stages of Parkinson's disease in December of 2014. Their symptoms included tremors in the hands, impaired short term memory, slow and uncontrolled rigid movements while walking and eating, and declining ocular blink function. The patient also had dry eyes with hyper-tearing, burning, and itching.
The patient was also treated with progesterone 1% on the forehead initially once daily beginning in March 2015. […] The progesterone was applied as needed for about a year.
Instead of the prescribed regimen, the patient began dermal application of dronabinol 1.25 mg 2 times daily to three sites: (i) the forehead, (ii) the concha of the left ear, and (iii) the concha of the right ear. Each dose of 1.25 mg was divided equally between the three application sites. This treatment regimen began Friday Jun. 10, 2016 concurrent with the discontinuation of rasagiline.
In February 2017, the patient, who suffers from debilitating moderate spinal stenosis, started taking Azilect (rasagiline) and carbidopa-levodopa to improve their walking and flexibility. […] The patient decided that, together with the prescribed medications, they would switch from dronabinol to topical testosterone gel applied to the forehead and ear conchae to see if this would impact their longstanding low testosterone levels.
In March 2017, topical testosterone gel application was instituted as an adjunct to is the prescribed Azilect and carbidopa-levodopa.
The patient voluntarily stopped topical testosterone for 3 weeks in June 2017. […] At the end of 3 weeks, topical testosterone was re-instituted as an adjunct to the prescribed medications.

essential tremor = test: Example 7: essential tremor subject with contact lens discomfort; format: in vivo, human
Protocol: A person developed persistent right hand tremors of a kinetic (non-resting) type that has been continuous over the past 6 years. […] This condition had not worsened over time. […] Initially, their doctor thought that these symptoms were stress related and they have been taking 2.5 mg of escitalopram for over 6 years. […] The subject was not on hormone replacement therapy or any other medication.
Concomitantly, the subject suffered from uncomfortable eyes, with a sticky burning sensation and development of blurred vision after about 5-6 hours of contact lens wear. For the past 3 years, the subject was administered 1% progesterone gel (1 mg per day) by dermal application to the forehead once per night. The progesterone gel prolonged comfortable contact lens wear time with sustained visual acuity from 5-6 hours to greater than 15 hours. […] After 2 years of treatment, the benefits of progesterone dermal application persisted for at least 3 days without treatment. There was no effect of the progesterone on their tremor symptoms.
After allowing for washout of progesterone for 3 days, they began forehead application of 0.5-0.75 mg dronabinol once daily at night.
The dronabinol administration regimen was altered by dividing equally the once daily dose of 0.5-0.75 mg dronabinol between the conchae of the left ear, the conchae of the right ear, and the forehead. […] Comfortable contact lens wear, with ease of insertion and removal, and visual acuity extends for 15 hours or more after dronabinol application.
Contact lens comfort wear duration was greater than 15 hours.
In April 2017, the subject, while still being treated with 1% progesterone applied to the forehead, instituted a once-daily low dose topical testosterone applied to the forehead and ear conchae to determine if doing so would produce a beneficial impact on further tremor reduction and in particular essential tremor triggered by caffeine consumption. […] They stopped the treatment to assess whether the tremor would return to pre-testosterone treatment levels. As of August 2017, the subject is without noticeable tremor. The caffeine trigger for tremor onset, which had been recognized throughout all treatments, has not re-appeared since the completion of the 4-week testosterone treatment. The subject continues on low-dose progesterone 1% applied daily to the forehead as the only treatment.

[2] = test system: herpes ophthalmicus and herpes keratitis; test: Example 8: herpes ophthalmicus and herpes keratitis patient; format: in vivo, human; details: dronabinol 0.5 mg twice daily to both ears
Excerpt: A patient experienced an episode of herpes ophthalmicus and herpes keratitis in September 2003, resulting in thinning melt of the left cornea, loss of vision, inflammation, neuralgia, and a rash of blisters to the left forehead, upper nose, and temple with a subsequent full left-face palsy droop, which required multiple cosmetic surgical procedures to provide some symmetry to the face and partial closure to the eyelids of the left eye.
No corneal graft to the left eye could be attempted due to recurrent thinning of the full cornea and inflammation of the vasculature. The patient was treated with ophthalmic prednisolone, topical and systemic antivirals, topical antibiotics, bandage lens, punctal plugs, and over-the-counter artificial tears and gels. This treatment regimen was continued until January 2011 when the cornea thinned to probable melt-through, necessitating corneal patch surgery. Just prior to the surgery, the patient's vision was measured at 20/2000, or finger vision.
The patient started applying 1% progesterone to their forehead twice daily just before corneal patch surgery planned for January 2011. The dose of progesterone was approximately 1 mg per application.
In September 2014, corneal tissue had sufficiently epithelialized at the perimeter to attempt a corneal graft, which was successfully completed. Progesterone 1% was applied daily to the forehead post-surgery. Within 9 months vision was restored to best correct vision pinhole 20/50.
In February 2015, the patient's visual acuity decreased as a result of the rejection of cells at the lower part of the graft. Moderate central staining continued to persist in a band where eyelids could not close. Intraocular pressure (TOP) in the left eye rose to 22 mmHg. The patient was placed on a treatment regimen that included Prednisolone Forte 6× plus Restasis for rejection 2× daily and oral valacycovir, together with mechanically taping the eyelid closed at night.
In May 2016, the patient initiated a course of twice daily dronabinol treatment, 0.5 mg each dose, to both ears. Through July, stabilization was achieved, and all other medications were discontinued. […] Visual acuity improved to 20/40.

herpes facial palsy = test: Example 9: functional facial motor control in herpes facial palsy; format: in vivo, human
Excerpt: A person had unilateral facial unilateral palsy stemming from 2003 herpes ophthalmicus and herpes keratitis. The left eye lids were unable to close to cover the central cornea without a forceful blink; neither were the lids able to open with the upper lid sagging and without elasticity or muscle control. This static condition was the baseline since the end of 2003 to May 2016, or nearly 13 years.
The left side of the face drooped, the left corner of the mouth drooled, and a noticeable asymmetry presented at rest. The upper lip could only slightly reveal the lowest pat of the upper teeth on the right side. There was minimal functional motor control of facial expression including upper lip. left side brow, eye lids, cheeks to mouth and chin lacked elasticity and functional motor control, leaving face fixed, expressionless, and asymmetrical.
The facial skin sagged as did the eye lids. […] His upper lip was partially frozen on the left side, and drooling was persistent. Lip and mouth expression as in smile was severely restricted.
Beginning in mid-May 2016, the patient began treatment twice daily with dronabinol 2.5 mg in oil, one-third of which was applied equally to the concha of the left ear, to the conchae of the right ear, and to the forehead.

[3] = dronabinol 1.25 mg 2 times daily, forehead and both conchae, two weeks, no other medications
[4] = dronabinol 2.5 mg in oil twice daily divided between both conchae and forehead, 3 months

Q: Which results are given for `CCCCCc1cc(O)c2c(c1)OC(C)(C)[C@@H]1CCC(C)=C[C@@H]21` [dronabinol, (6aR,10aR)-6a,7,8,10a-tetrahydro-6,6,9-trimethyl-3-pentyl-6H-dibenzo[b,d]-pyran-1-ol]?
A: stability of improvement ([1]; 3 months of dronabinol to conchae and forehead as sole Parkinson's medication): stable at the improved level; speech, thought and social interaction ([1]; dronabinol 1.25 mg 2 times daily divided between forehead and concha of both ears, within three days, washing out of rasagiline): more fluid speech, less searching for words, fewer thought gaps; bodily rigidity [1, 3]: significantly less bodily rigidity; depression [1, 3]: depression resolved in the absence of antidepressants; facial masking [1, 3]: decreased facial masking and more voluntary facial expressions; also recorded: decrease in facial masking; hand tremors [1, 3]: markedly reduced hand tremors; memory function [1, 3]: much improved memory function; motor skills and coordination [1, 3]: motor skills and coordination improved; postnasal drip, chest cough and asthmatic wheezing [1, 3]: persistent postnasal drip resolved, chest cough and asthmatic wheezing resolved; dry eyes ([1]; dronabinol 1.25 mg 2 times daily, forehead and both conchae, within three days): dry eyes resolved with no need for artificial tears; improvement of Parkinson's disease symptoms (motor, cognitive, emotional), reported by wife ([1]; dronabinol since Jun. 10, 2016 as sole medication, reported Jul. 27, 2016): 90%; cognitive function and other non-motor symptoms during tapering-off ([1]; tapering-off of dronabinol, already on Azilect and carbidopa-levodopa): rapidly deteriorated; adverse events ([1]; throughout low dose neural cranial treatment): no adverse events were noted; comfortable contact lens wear duration (essential tremor; 0.5-0.75 mg dronabinol once daily divided between both conchae and forehead): ≥ 15 h; hand tremor (essential tremor; 0.5-0.75 mg dronabinol once daily divided between both conchae and forehead, by the fourth day): hand tremor had noticeably reduced; hand tremor (essential tremor; 0.5-0.75 mg dronabinol once daily to forehead only, 2 weeks): without impacting their symptoms of hand tremor; reduction of essential tremor from pre-treatment levels, stable new baseline (essential tremor; after discontinuing dronabinol): about 50%; ocular discomfort (essential tremor; dronabinol USP 0.5 mg to 0.75 mg in an oil formulation to the forehead, substituted for progesterone): the same benefits to ocular discomfort was obtained; tremor amplitude after ceasing treatment (essential tremor; dronabinol ceased for 3 days, right hand): about 50 % of pre-treatment level; reduction in essential tremor from pre-treatment baseline (essential tremor; during dronabinol treatment): 80%; appetite (essential tremor; low dose topical dronabinol): unwanted increase in appetite; corneal staining ([2]; May through July 2016): improve somewhat, but still moderate; graft rejected cells ([2]; May through July 2016): the number of rejected cells became fewer; visual acuity ([2]; May through July 2016): 20/40; intraocular pressure (printed TOP) ([2]; May through July 2016, from 22 mmHg): 16 mmHg; best corrected vision pinhole ([2]; beginning of August): 20/25; blink interval ([2]; beginning of August): approximately 24 second; corneal staining ([2]; beginning of August): staining improved to superficial; intraocular pressure (printed TOP) in both eyes ([2]; beginning of August): 18; rejection cells ([2]; beginning of August): no sign of rejection cells; Keratograph 5M non-invasive tear film break times (NIKBUTs) level ([2]; beginning of August, 0 = best): 0; facial droop and drool (herpes facial palsy; 3 months of dronabinol application to the ear conchae): droop ad drool significantly resolved; recurrence of facial palsy (herpes facial palsy; after dronabinol was discontinued in August 2016): no recurrence of facial palsy; best corrected vision with pinhole (herpes facial palsy; [4]): 20/25; conjunctival redness (herpes facial palsy; [4]): improved significantly; control over facial expression muscles (herpes facial palsy; [4]): regained control over facial expression muscles; early graft rejection (herpes facial palsy; [4]): reversed; eye lid motor control (herpes facial palsy; [4]): more motor control over both eye lids; persistent central corneal staining (herpes facial palsy; [4]): resolved to a significant degree; tear film breakup time level by Keratograph 5M (herpes facial palsy; dronabinol 2.5 mg in oil twice daily divided between both conchae and forehead, 3 months, 0 = best): 0
